From publication PMC3758386 (Psychopharmacology, 2013)

Key:
K+ Channel hERG = K+ Channel hERG (Homo sapiens, UniProt Q12809); assay: receptor screen, K+ Channel hERG; type: binding; conditions: read-out: Ki K+ Channel hERG; receptor screen, [3H]Astemizole
Adenosine A1 = molecular target: T1, Adenosine A1 (Homo sapiens, UniProt P30542); assay: receptor screen, Adenosine A1; type: binding; conditions: [3H]DPCPX, inactive = displacement at 10,000 nM less than 75%
T1 sequence (P30542 1-326): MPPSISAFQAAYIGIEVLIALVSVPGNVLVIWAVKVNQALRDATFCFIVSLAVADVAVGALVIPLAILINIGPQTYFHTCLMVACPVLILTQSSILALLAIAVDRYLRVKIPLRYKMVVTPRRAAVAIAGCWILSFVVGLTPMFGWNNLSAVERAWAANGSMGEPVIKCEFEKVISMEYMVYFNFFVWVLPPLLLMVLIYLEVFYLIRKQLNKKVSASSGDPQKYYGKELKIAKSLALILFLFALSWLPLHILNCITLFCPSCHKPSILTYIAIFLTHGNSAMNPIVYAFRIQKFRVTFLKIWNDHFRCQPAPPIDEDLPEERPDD

NET = conditions: read-out: Ki NET; ref Woolverton et al., Psychopharmacology (2001); cited from earlier work
Muscarinic M3 = Muscarinic M3 (Homo sapiens, UniProt P20309); assay: receptor screen, Muscarinic M3; type: binding; conditions: read-out: Ki Muscarinic M3, [3H]N-methylscopolamine
Sequence of Muscarinic M3 (P20309 whole entry): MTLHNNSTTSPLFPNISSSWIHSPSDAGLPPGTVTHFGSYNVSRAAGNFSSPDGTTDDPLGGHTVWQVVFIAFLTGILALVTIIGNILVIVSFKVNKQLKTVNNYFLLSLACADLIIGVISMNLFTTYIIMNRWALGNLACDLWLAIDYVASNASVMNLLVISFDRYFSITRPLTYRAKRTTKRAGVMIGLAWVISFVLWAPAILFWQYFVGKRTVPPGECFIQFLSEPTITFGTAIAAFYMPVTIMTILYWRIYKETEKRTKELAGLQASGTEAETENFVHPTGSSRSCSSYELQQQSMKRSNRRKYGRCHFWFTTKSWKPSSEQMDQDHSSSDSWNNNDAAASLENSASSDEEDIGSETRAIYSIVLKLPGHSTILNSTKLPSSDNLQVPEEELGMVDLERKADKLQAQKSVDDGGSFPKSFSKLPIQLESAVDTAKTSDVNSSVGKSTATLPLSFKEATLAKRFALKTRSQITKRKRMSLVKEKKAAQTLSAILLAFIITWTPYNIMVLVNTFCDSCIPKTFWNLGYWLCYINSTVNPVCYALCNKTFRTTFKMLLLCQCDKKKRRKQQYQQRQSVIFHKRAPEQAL

rats = assay: Place conditioning; type: in vivo; conditions: rat, i.p. (1 to 10 mg/kg), injected immediately before conditioning sessions
SERT = conditions: read-out: Ki SERT; ref Woolverton et al., Psychopharmacology (2001); cited from earlier work
Muscarinic M2 = molecular target: T2, Muscarinic M2 (Homo sapiens, UniProt P08172); assay: receptor screen, Muscarinic M2; type: binding; conditions: read-out: Ki Muscarinic M2, [3H]N-methylscopolamine
T2 sequence (P08172 1-466): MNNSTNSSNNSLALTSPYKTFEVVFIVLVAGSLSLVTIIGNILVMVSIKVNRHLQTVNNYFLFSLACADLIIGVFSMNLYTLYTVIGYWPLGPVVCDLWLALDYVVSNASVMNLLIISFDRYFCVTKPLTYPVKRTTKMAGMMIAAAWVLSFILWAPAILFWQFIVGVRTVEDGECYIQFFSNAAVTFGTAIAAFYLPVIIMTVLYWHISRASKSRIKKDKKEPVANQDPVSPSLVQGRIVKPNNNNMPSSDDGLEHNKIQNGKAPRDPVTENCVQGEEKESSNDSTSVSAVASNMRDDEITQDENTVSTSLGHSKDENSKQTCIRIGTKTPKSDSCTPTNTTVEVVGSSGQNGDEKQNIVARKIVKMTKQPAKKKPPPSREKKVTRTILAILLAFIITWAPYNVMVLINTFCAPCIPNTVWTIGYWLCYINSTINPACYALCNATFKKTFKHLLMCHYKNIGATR

[1] = test system: Glutamate, NMDA, phencyclidine; assay: receptor screen, Glutamate, NMDA, phencyclidine; type: binding, Rat; conditions: [3H]TCP, inactive = displacement at 10,000 nM less than 75%
DAT = conditions: read-out: Ki DAT; ref Newman and Katz (2009); cited from earlier work

Sequence of K+ Channel hERG (Q12809 whole entry): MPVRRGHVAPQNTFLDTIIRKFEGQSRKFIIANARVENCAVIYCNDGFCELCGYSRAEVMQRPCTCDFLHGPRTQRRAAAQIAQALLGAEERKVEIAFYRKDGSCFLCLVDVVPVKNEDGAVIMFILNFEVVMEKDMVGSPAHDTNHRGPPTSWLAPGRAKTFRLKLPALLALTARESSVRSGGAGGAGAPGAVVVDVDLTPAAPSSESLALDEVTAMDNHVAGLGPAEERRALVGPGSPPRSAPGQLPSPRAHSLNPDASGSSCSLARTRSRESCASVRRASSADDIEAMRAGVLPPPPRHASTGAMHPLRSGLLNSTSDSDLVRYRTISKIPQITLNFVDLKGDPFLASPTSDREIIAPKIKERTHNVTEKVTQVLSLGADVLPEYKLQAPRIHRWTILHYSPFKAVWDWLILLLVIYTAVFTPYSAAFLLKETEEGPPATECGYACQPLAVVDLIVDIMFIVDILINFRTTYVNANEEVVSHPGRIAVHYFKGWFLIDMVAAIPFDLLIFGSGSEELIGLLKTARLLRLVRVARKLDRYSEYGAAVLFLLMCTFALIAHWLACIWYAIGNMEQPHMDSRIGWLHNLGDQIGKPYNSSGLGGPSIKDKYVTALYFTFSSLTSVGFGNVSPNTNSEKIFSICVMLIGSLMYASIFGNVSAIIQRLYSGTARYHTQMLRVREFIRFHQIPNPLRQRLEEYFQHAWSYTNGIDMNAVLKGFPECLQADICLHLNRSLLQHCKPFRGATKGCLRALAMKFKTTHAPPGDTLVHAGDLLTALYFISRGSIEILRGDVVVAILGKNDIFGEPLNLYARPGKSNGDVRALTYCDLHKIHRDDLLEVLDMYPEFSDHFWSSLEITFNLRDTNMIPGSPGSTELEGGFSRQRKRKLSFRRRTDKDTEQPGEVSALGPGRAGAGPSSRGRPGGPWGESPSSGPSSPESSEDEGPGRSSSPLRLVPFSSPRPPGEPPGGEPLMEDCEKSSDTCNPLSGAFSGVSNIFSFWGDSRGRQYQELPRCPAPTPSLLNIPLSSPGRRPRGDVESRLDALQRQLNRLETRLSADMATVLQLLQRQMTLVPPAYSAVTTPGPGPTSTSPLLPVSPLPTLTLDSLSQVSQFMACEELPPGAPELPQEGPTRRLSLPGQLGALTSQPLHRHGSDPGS

Q: For `CN1C2CCC1CC(OC(c1ccccc1)c1ccc(Cl)cc1)C2` (stereo not drawn) [4-Cl-BZT, 4′-chloro-3α-(diphenylmethoxy)tropane], which Ki (K+ Channel hERG) is on record?
A: Its Ki is 804 ± 300 nM.

Q: What about the “Ki Adenosine A1” value (Adenosine A1) of the same molecule?
A: The value was “inactive”.

Q: And the Ki (NET)?
A: The Ki was 1470 ± 180 nM.

Q: What about the Ki (Muscarinic M3) of the same molecule?
A: Its Ki is 0.384 ± 0.043 nM.

Q: And the “place conditioning (time allocated to compound-paired compartment)” value (rats)?
A: The value was “did not increase the time allocated to the compound-paired compartment”.

Q: What about the Ki (SERT) of the same molecule?
A: Its Ki is 5120 ± 395 nM.

Q: And the Ki (Muscarinic M2)?
A: Its Ki is 5.88 ± 0.63 nM.

Q: What about the “Ki Glutamate, NMDA, phencyclidine” value [1] of the same molecule?
A: Its value is “inactive”.

Q: What about the Ki (DAT) of the same molecule?
A: The Ki was 10.5 ± 1.21 nM.
